# *1 amine or outer side, *2 acyl side, *3 side chain or, on linkers, in order; H or OH if unused. Where a SMILES comes first, the peptide text is derived from it. Bridges are numbered along the chain shown (N, C = ends). [ ]: non-standard residue; d: D form. The star is where a group is joined. X120 = CN([C@@H](Cc1cc(Cl)ccc1-c1ccn(S(C)(=O)=O)c1)C(=O)[*:2])[*:1]; X203 = CN([C@@H](Cc1cc(Cl)ccc1-c1cnn(C(F)F)c1)C(=O)[*:2])[*:1]; NMehhhLys(Me) = CN([C@@H](CCCCCCCN(C)[*:3])C(=O)[*:2])[*:1]; X152 = CN([C@@H](Cc1cc(Cl)ccc1OC1CC1)C(=O)[*:2])[*:1]; cBuCO(3,3-F2-1-CF3) = O=C(C1(C(F)(F)F)CC(F)(F)C1)*; X161 = Cc1ccc(F)cc1C[C@@H](C(=O)[*:2])N(C)[*:1]; Pro(trans-4-F) = O=C(O)[C@@H]1C[C@@H](F)CN1; Gly(cPr) = N[C@H](C(=O)O)C1CC1
# What was measured:
# CyclinA2/CDK2 = biological target: T1, CyclinA2/CDK2 (Homo sapiens, UniProt P20248); assay: Fluorescence Polarization (FP) competitive binding assay, Cyclin A2/Cdk2; conditions: 8 nM Cyclin A2/Cdk2, 2 nM FAM probe; average of 2-3 independent experiments; read-out: Cyclin A FP IC50;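 note: plates equilibrated two hours at room temperature before polarization reading, IC50 fitted from eight-concentration compound titration curves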
# T1 construct: purchased CRELUX Protein Services
# CyclinB1/CDK1 = biological target: T2, CyclinB1/CDK1 (Homo sapiens, UniProt P14635); assay: Fluorescence Polarization (FP) competitive binding assay, Cyclin B1/Cdk1; conditions: 10 nM Cyclin B1/Cdk1, 2 nM FAM probe; average of 2-3 independent experiments; read-out: Cyclin B FP IC50;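 note: fluorescence polarization read after equilibration at room temperature, with IC50 taken from serially diluted dose-response curves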
# T2 construct: purchased Eurofins, discovery 14-450
# NCI-H1048 cells = assay: MTT proliferation assay, NCI-H1048; assay type: cell-based; conditions: 5 days compound exposure, 1:3 serial dilution starting at 10 μM;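 note: Dose-response in 96-well plates over 8 or 10 concentration points, with exposure spanning 3-4 cell doublings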
# OVCAR3 cells = assay: MTT proliferation assay, OVCAR3; assay type: cell-based; conditions: 5 days compound exposure, 1:3 serial dilution starting at 10 μM;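 note: compound given as an 8- or 10-point series, one day after plating, with exposure covering roughly 3-4 cell doublings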
# CyclinE1/CDK2 = biological target: T3, CyclinE1/CDK2 (Homo sapiens, UniProt P24864); assay: Fluorescence Polarization (FP) competitive binding assay, Cyclin E1/Cdk2; conditions: 10 nM Cyclin E1/Cdk2, 2 nM FAM probe; average of 2-3 independent experiments; read-out: Cyclin E FP IC50;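 note: readings taken after two-hour equilibration at room temperature in HEPES buffer with NaCl, DTT, NP-40 and BSA, IC50 fitted from eight-concentration serial dilution series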
# T3 construct: purchased Eurofins, discovery 14-475
SMILES,IC50 (CyclinA2/CDK2),IC50 (CyclinB1/CDK1),GI50 (NCI-H1048 cells),GI50 (OVCAR3 cells),IC50 (CyclinE1/CDK2)
"CC(C)C[C@@H]1NC(=O)[C@@H](N(C)C(=O)[C@@H](NC(=O)[C@@H]2C[C@@H](F)CN2C(=O)C2(C(F)(F)F)CC(F)(F)C2)C2CC2)CC=CCCCCNC(=O)[C@H](Cc2cc(Cl)cnc2OC2CC2)N(C)C1=O (single isomer, unassigned) [Example 102-P2]",120 nM,20 nM,80 nM,130 nM,310 nM
"CC(C)C[C@@H]1NC(=O)[C@@H](N(C)C(=O)[C@@H](NC(=O)[C@@H]2C[C@@H](F)CN2C(=O)C2(C(F)(F)F)CCC2)C2CC2)CC=CCCCCNC(=O)[C@H](Cc2cc(Cl)ccc2Oc2ncccn2)N(C)C1=O (single isomer, unassigned) [Example 156-P1]",890 nM,20 nM,480 nM,530 nM,830 nM
"CC(C)C[C@@H]1NC(=O)[C@@H](N(C)C(=O)[C@@H](NC(=O)[C@@H]2C[C@@H](F)CN2C(=O)C2(C(F)(F)F)CC(F)(F)C2)C2CC2)CCCCCCCN(C)C(=O)[C@H](Cc2cc(Cl)ccc2-c2cnn(C(F)F)c2)N(C)C1=O [Example 200] ({cBuCO(3,3-F2-1-CF3)}-[Pro(trans-4-F)][Gly(cPr)][NMehhhLys(Me)]L[X203]; lactam 3-C)",30 nM,20 nM,40 nM,30 nM,890 nM
"CC(C)C[C@@H]1NC(=O)[C@@H](N(C)C(=O)[C@@H](NC(=O)[C@@H]2C[C@@H](F)CN2C(=O)C2(C(F)(F)F)CCC2)C2CC2)CC=CCCCCNC(=O)[C@H](Cc2cc(Cl)ccc2Oc2ncccn2)N(C)C1=O (single isomer, unassigned) [Example 156-P2]",350 nM,20 nM,90 nM,100 nM,240 nM
"CC(C)C[C@@H]1NC(=O)[C@@H](N(C)C(=O)[C@@H](NC(=O)[C@@H]2C[C@@H](F)CN2C(=O)C2(C(F)(F)F)CC(F)(F)C2)C2CC2)CCCCCCCN(C)C(=O)[C@H](Cc2cc(Cl)ccc2-c2ccn(S(C)(=O)=O)c2)N(C)C1=O [Example 307] ({cBuCO(3,3-F2-1-CF3)}-[Pro(trans-4-F)][Gly(cPr)][NMehhhLys(Me)]L[X120]; lactam 3-C)",20 nM,20 nM,10 nM,10 nM,440 nM
"CC(C)C[C@@H]1NC(=O)[C@@H](N(C)C(=O)[C@@H](NC(=O)[C@@H]2C[C@@H](F)CN2C(=O)C2(C(F)(F)F)CC(F)(F)C2)C2CC2)CCCCCCCN(C)C(=O)[C@H](Cc2cc(Cl)ccc2OC2CC2)N(C)C1=O [Example 314] ({cBuCO(3,3-F2-1-CF3)}-[Pro(trans-4-F)][Gly(cPr)][NMehhhLys(Me)]L[X152]; lactam 3-C)",30 nM,20 nM,10 nM,10 nM,140 nM
"Cc1ccc(F)cc1C[C@H]1C(=O)N(C)CCCCCCC[C@H](N(C)C(=O)[C@@H](NC(=O)[C@@H]2C[C@@H](F)CN2C(=O)C2(C(F)(F)F)CC(F)(F)C2)C2CC2)C(=O)N[C@@H](CC(C)C)C(=O)N1C [Example 123] ({cBuCO(3,3-F2-1-CF3)}-[Pro(trans-4-F)][Gly(cPr)][NMehhhLys(Me)]L[X161]; lactam 3-C)",30 nM,20 nM,20 nM,20 nM,120 nM
COCn1cc(-c2ccc(Cl)cc2C[C@H]2C(=O)N(C)CCCCC=CC[C@H](N(C)C(=O)[C@@H](NC(=O)[C@@H]3C[C@@H](F)CN3C(=O)C3(C(F)(F)F)CC(F)(F)C3)C3CC3)C(=O)N[C@@H](CC(C)C)C(=O)N2C)cn1 [Example 79],50 nM,20 nM,30 nM,40 nM,630 nM
"CC(C)C[C@@H]1NC(=O)[C@@H](N(C)C(=O)[C@@H](NC(=O)[C@@H]2C[C@@H](F)CN2C(=O)C2(C(F)(F)F)CC2)C2CC2)CC=CCCCCNC(=O)[C@H](Cc2cc(Cl)ccc2Cl)N(C)C1=O (single isomer, unassigned) [Example 5-P2]",560 nM,20 nM,290 nM,560 nM,460 nM

# From patent US20240408169A1 (priority 2023, published 2024)
